Values of other authors, collected in patent publication US6972176B2, “KVLQT1—a long QT syndrome gene” (University of Utah Research Foundation, priority 1995, dated 2005).

Target: T1, IKs in isolated myocytes (Cavia porcellus, UniProt O70344)
T1 construct: host or cells: isolated cardiac myocytes
T1 sequence (O70344 1-671): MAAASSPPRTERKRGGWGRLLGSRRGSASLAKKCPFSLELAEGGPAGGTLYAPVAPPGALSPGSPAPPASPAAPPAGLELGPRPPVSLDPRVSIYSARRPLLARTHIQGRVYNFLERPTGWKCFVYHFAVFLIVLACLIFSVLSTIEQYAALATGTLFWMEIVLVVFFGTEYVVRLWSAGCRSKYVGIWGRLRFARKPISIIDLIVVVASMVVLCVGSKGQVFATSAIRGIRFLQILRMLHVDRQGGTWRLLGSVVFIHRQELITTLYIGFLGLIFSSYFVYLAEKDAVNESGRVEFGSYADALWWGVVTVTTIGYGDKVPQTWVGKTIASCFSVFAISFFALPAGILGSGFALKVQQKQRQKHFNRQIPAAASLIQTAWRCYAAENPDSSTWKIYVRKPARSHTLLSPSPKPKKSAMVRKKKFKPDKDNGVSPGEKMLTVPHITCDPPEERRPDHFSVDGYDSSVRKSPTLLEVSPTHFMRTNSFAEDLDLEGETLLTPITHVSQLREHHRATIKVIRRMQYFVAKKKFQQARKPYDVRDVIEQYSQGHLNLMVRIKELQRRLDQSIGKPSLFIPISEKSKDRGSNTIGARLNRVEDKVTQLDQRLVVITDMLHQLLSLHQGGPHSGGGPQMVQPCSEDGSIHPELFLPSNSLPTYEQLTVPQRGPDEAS
Conditions: Balser et al, 1991

block of IKs: 40-50%
SMILES: C=C[C@H]1C[N@@]2CC[C@H]1C[C@@H]2[C@@H](O)c1ccnc2ccc(OC)cc12 [Quinidine]
